The nature of series [1]: Solubility in water and olive oil (Method III). As to the method:
a) Preparation of olive oil or aqueous solutions. 1 ml of olive oil or I ml of double-distilled water (or dilute NaOH pH=7.6) was added to 1 mg or 10 mg or 50 mg of the respective compound at 37° C. and it was checked whether a clear solution was obtained. The optionally centrifuged and decanted olive oil solutions were heated for 5 minutes using a Bunsen burner and the degree of browning of the olive oil was determined. […] Samples having poor protective action are given a (*) in the table (see below).

Series [2] is described as follows: Inhibition of the oxidation of lipids: SA-PC in cyclohexane (Method IV). Particulars: 37° C., absorption at 234 nm. Type of series: biochemical. The protocol:
Oxidation of 1-stearoyl-2-arachidonoylphosphatidylcholine (SA-PC) in cyclohexane (37° C.). 100 mcl of a SA-PC solution (10 mg/ml of CHCl3) were evaporated by blowing (argon) and the residue was taken up in 1 ml of cyclohexane. After adding an amount of antioxidant which would also dissolve in olive oil (cf. Table 1), the absorption was measured at 234 nm (Perkin Elmer 5528 spektrophotometer, Uberlingan, FRG) and the solvent was then evaporated by blowing with air. After a fur%her 24 hours standing in an open vessel, the residue was again dissolved in i ml of cyclohexane and the absorption at 234 nm was measured as a measurement of the oxidized SA-PC.

Series [3] has as its system thrombus formation in rats. Kind of series: Laser-induced thrombosis in rats in vivo (Method VIII). Also on record: species or system rat. Particulars: 30 mg/kg oral, laser induction 60 min after administration. As to the method: The experimental procedure was carried out in every detail as described in U.S. Pat. No. 4,694,024. Laser induction took place 60 min after oral administration of the antioxidants.

Series [4] is described as follows: Long-term administration in the hyperlipidemic infarct-sensitive rat: total serum cholesterol (Method XI). It is filed as in vivo. Particulars: 50 mg/kg oral, after 9 days; control 286. As to the method: While no test substance was administered to the control group I (cf. the following Table), the standard diet in the pharmaceutical experiments II-IV additionally contained 50 mg/kg of body weight of the test substances indicated in the table below. After 9 days, the rats were examined, as described above, in the laser-induced thrombosis test, and the total cholesterol content of the serum was determined. […] Moreover, the substances according to the invention exerted an advantageous hypolipidemic effect.

The subject of series [5] is proneness to thrombosis of hyperlipidemic infarct-sensitive rats. Kind of series: Long-term administration in the hyperlipidemic infarct-sensitive rat: laser-induced thrombosis test (Method XI). Particulars: 50 mg/kg oral, after 9 days. It is filed as in vivo.
Description: Male infarct-sensitive rats about 200 g in weight (Mollegaard, Ejby, Denmark) were treated orally once daily with 1 ml/100 g of body weight of a standard diet (100 g of cholic acid, 100 g of cholesterol, 30 g of propylthiouracil to 1 l of sesame oil). While no test substance was administered to the control group I (cf. the following Table), the standard diet in the pharmaceutical experiments II-IV additionally contained 50 mg/kg of body weight of the test substances indicated in the table below. After 9 days, the rats were examined, as described above, in the laser-induced thrombosis test, and the total cholesterol content of the serum was determined.
The nature of series [6]: Use as an additive in frying fat: color change of butter (Method II). Particulars: 1% (weight/weight) in butter. As to the method:
Use as an additive in frying fat: Samples of commercially available German non-blended butter were melted and in each case 1% (weight/weight) of BHT (=butylated hydroxytoluene) or 2,6-di-tert.-butyl-4-(7-nonynoyl)-phenol [=compound according to Example 17] or ethyl 2-(3,5-di-tert.-butyl-4-hydroxybenzyl)-3-oxo-docosanoate [=compound according to Example 18] or N-octadecyl-DL-α-lipoic acid amide [=compound according to Example 52] was added and the mixture was used in the customary manner as frying fat. […] The better protective action of the […] probably comes about as a result of their lipophilic side chains and, therefore, improved lipophilic interaction. The advantageous action of N-octadecyl-DL-α-lipoic acid amide is particularly surprising, although this preparation has no recognizable antioxidative component.

The nature of series [7]: Antioxidative radical scavenger properties by the diphenylpicrylhydrazine (DPPH) method (Method I). Type of series: biochemical. Particulars: absolute ethanol. The protocol:
Antioxidative radical scavenger properties by the diphenylpicrylhydrazine (DPPH) method: The determination was carried out spectrophotometrically (PMQ4 from Zeiss, Oberkochen, FRG) by the method described in Smith and Reeves, Biochemical Pharmacology 36 (1987) pp. 1457-1460. The measurement is the rate constant determined graphically (concentration versus conversion rate) in a known manner, measured in absolute ethanol.
(In general: The DPPH test is a chemical assay of radical scavenging.)

Setting [8] is: olive oil, organic solvent or mixture.

As to `CCCCCCCCCCCCCCCCCCNC(=O)CCCCC(S)CCS` (racemic) [Example 49], the solubility is above 10000 µg/mL in series [1] (setting [8]) and below 100 µg/mL in series [1] (water). Further, in series [2], the “prevention of the oxidation of SA-PC, reduced dithiol vs. corresponding oxidized dithio compounds” value is listed as “possible to prevent the oxidation of SA-PC Just as effectively”. Further, the “Reduction of thrombus formation” value in series [3] stood at 20%. Besides, in series [4], the Total cholesterol came out at 259 mg/dL. In series [5], the “Reduction in proneness to thrombosis vs. control (%)” value (shortened to “Reduction in proneness … (%)”) came out at 34%.

On to `CCCCCCCCCCCCCCCCCCNC(=O)CCCCC1CCSS1` (racemic) [Example 52, N-octadecyl-DL-α-lipoic acid amide], for which the “color change of frying fat after the frying procedure” value (from here on “color change of frying fat”) in series [6] was “substantially lower color change”. The figures for the solubility in series [1] (setting [8]) and in series [1] (water) were above 10000 µg/mL and below 100 µg/mL, respectively. The “prevention of the oxidation of SA-PC, reduced dithiol vs. corresponding oxidized dithio compounds” value in series [2] is recorded as “possible to prevent the oxidation of SA-PC Just as effectively”. The “Reduction of thrombus formation” value in series [3] was found to be 14%.

Turning to `O=C1O[C@H]([C@@H](O)CO)C(O)=C1O` [Ascorbic acid], the “Reaction with DPPH (rate constant)” value in series [7] was determined as 2.99.

Consider `Cc1cc(C(C)(C)C)c(O)c(C(C)(C)C)c1` [BHT, butylated hydroxytoluene, reference compound], for which the “color change of frying fat” value in series [6] is recorded as “transformed into a viscous, dark brown material”. Further, the solubility in series [1] (setting [8]) was above 10000 µg/mL; in series [1] (water) it was below 100 µg/mL.

For `Cc1c(C)c2c(c(C)c1O)CCC(C)(C(=O)NCCCNC(=O)CC[C@@H](C)[C@H]1CC[C@H]3[C@@H]4CC[C@@H]5C[C@H](O)CC[C@]5(C)[C@H]4C[C@H](O)[C@]13C)O2` (stereo partly shown) [Example 2], the solubility in series [1] (setting [8]) was above 10000 µg/mL; in series [1] (water), above 100 µg/mL. Further, the “Reduction of thrombus formation” value in series [3] worked out at 14%. The same compound displayed a Total cholesterol in series [4] of 270 mg/dL. For the same compound, in series [5], the “Reduction in proneness … (%)” value is reported as 50%.

As for `CCCCCCC#CC(=O)c1cc(C(C)(C)C)c(O)c(C(C)(C)C)c1` [Example 17], the “color change of frying fat” value in series [6] is on record as “substantially lower color change”. The solubility was above 50000 µg/mL in series [1] (setting [8]) and below 100 µg/mL in series [1] (water).

`CCCCCCCCCCCCCCCCCCCC(=O)C(Cc1cc(C(C)(C)C)c(O)c(C(C)(C)C)c1)C(=O)OCC` (stereo not shown) [Example 18, ethyl 2-(3,5-di-tert.-butyl-4-hydroxybenzyl)-3-oxo-docosanoate]: the “color change of frying fat” value in series [6] is listed as “substantially lower color change”. The solubility is above 50000 µg/mL in series [1] (setting [8]) and below 100 µg/mL in series [1] (water).

As to `CCCCCCCCCCCCCCCCCCOC(=O)CCCCC(S)CCS` (stereo not shown) [Example 50], the solubility in series [1] (setting [8]) is above 50000 µg/mL; in series [1] (water), below 100 µg/mL. In addition, in series [2], the “prevention of the oxidation of SA-PC, reduced dithiol vs. corresponding oxidized dithio compounds” value was “possible to prevent the oxidation of SA-PC Just as effectively”.

For `CCCCCCCCCCCCCCCCCCOC(=O)CCCCC1CCSS1` (stereo not shown) [Example 51], the solubility in series [1] (setting [8]) is above 50000 µg/mL; in series [1] (water), below 100 µg/mL. The “prevention of the oxidation of SA-PC, reduced dithiol vs. corresponding oxidized dithio compounds” value in series [2] is listed as “possible to prevent the oxidation of SA-PC Just as effectively”.

In the case of Vitamin E [reference compound], in series [1] (olive oil), the “Solubility, Olive oil” value is above 10000 µg/mL. Besides, the “Solubility, Water” value in series [1] (water) was below 100 µg/mL. Also, the “Reduction of thrombus formation” value in series [3] is listed as 5%. The same compound returned a Total cholesterol in series [4] of 278 mg/dL. Further, in series [5], the “Reduction in proneness … (%)” value is on record as 26%.

By solubility is commonly meant the dissolved amount per volume that the medium holds.

The values are drawn from US5508275A, “Lipid-selective antioxidants and their preparation and use” (Hoechst Aktiengesellschaft, priority 1990, dated 1996).
